# Laboratory results as given in PubChem BioAssay (NCI).
#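 Briefly, cells in 96-well plates were exposed to five compound concentrations for 48 h, and endpoints were estimated by linear interpolation. TGI marks complete inhibition of growth.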
# Key:
# Assay in all cases: NCI anticancer screen, dose series, 48 h
# [1] = test system: SK-MEL-5 melanoma
# [2] = test system: RXF-631 renal
# [3] = test system: NCI-H460 lung
# [4] = test system: KM12 colon
# [5] = test system: HCT-116 colon
# [6] = test system: LXFL 529 NSCLC
# [7] = test system: SN12C renal
# [8] = test system: UACC-257 melanoma
# [9] = test system: K-562 leukemia
# [10] = test system: OVCAR-3 ovarian
# [11] = test system: UACC-62 melanoma
# [12] = test system: IGROV1 ovarian
# [13] = test system: OVCAR-4 ovarian
# [14] = test system: CAKI-1 renal
# [15] = test system: A549 NSCLC
# [16] = test system: OVCAR-5 ovarian
# [17] = test system: SF-295 CNS
# [18] = test system: HOP-18 NSCLC
# [19] = test system: SK-MEL-28 melanoma
# [20] = test system: SR leukemia
# [21] = test system: M14 melanoma
# [22] = test system: 786-0 renal
# [23] = test system: NCI-H522 lung
# [24] = test system: SW-620 colon
# [25] = test system: CCRF-CEM leukemia
# [26] = test system: M19-MEL melanoma
# [27] = test system: DMS 273 small cell lung
# [28] = test system: HOP-62 NSCLC
# [29] = test system: XF 498 CNS
# [30] = test system: HT29 colon
# [31] = test system: MOLT-4 leukemia
# [32] = test system: A498 renal
# [33] = test system: COLO 205 colon
# [34] = test system: SK-MEL-2 melanoma
# [35] = test system: UO-31 renal
# [36] = test system: SNB-78 CNS
# [37] = test system: MALME-3M melanoma
# [38] = test system: ACHN renal
# [39] = test system: LOX IMVI melanoma
# [40] = test system: OVCAR-8 ovarian
# [41] = test system: NCI-H23 lung
# [42] = test system: RPMI-8226 leukemia
# [43] = test system: SK-OV-3 ovarian
# [44] = test system: EKVX NSCLC
# [45] = test system: TK-10 renal
# [46] = test system: SNB-75 CNS
# [47] = test system: SF-268 CNS
# [48] = test system: SNB-19 CNS
# [49] = test system: HOP-92 NSCLC
# [50] = test system: U251 CNS
# [51] = test system: HL-60(TB) leukemia
# [52] = test system: SF-539 CNS
# [53] = test system: DLD-1 colon
# [54] = test system: RXF 393 renal
# [55] = test system: HCT-15 colon
# [56] = test system: HCC-2998 colon
smiles,measurement,setting,value
O=C1NC2(CCCC2)C(=O)C12CCCC2,TGI,[1],> 100 µM
same,TGI,[2],> 100 µM
same,TGI,[3],> 100 µM
same,TGI,[4],> 100 µM
same,TGI,[5],> 100 µM
same,TGI,[6],> 100 µM
same,TGI,[7],> 100 µM
same,TGI,[8],> 100 µM
same,TGI,[9],> 100 µM
same,TGI,[10],> 100 µM
same,TGI,[11],> 100 µM
same,TGI,[12],> 100 µM
same,TGI,[13],> 100 µM
same,TGI,[14],> 100 µM
same,TGI,[15],> 100 µM
same,TGI,[16],> 100 µM
same,TGI,[17],> 100 µM
same,TGI,[18],> 100 µM
same,TGI,[19],> 100 µM
same,TGI,[20],> 100 µM
same,TGI,[21],> 100 µM
same,TGI,[22],> 100 µM
same,TGI,[23],> 100 µM
same,TGI,[24],> 100 µM
same,TGI,[25],> 100 µM
same,TGI,[26],> 100 µM
same,TGI,[27],> 100 µM
same,TGI,[28],> 100 µM
same,TGI,[29],> 100 µM
same,TGI,[30],> 100 µM
same,TGI,[31],> 100 µM
same,TGI,[32],> 100 µM
same,TGI,[33],> 100 µM
same,TGI,[34],> 100 µM
same,TGI,[35],> 100 µM
same,TGI,[36],> 100 µM
same,TGI,[37],> 100 µM
same,TGI,[38],> 100 µM
same,TGI,[39],> 100 µM
same,TGI,[40],> 100 µM
same,TGI,[41],> 100 µM
same,TGI,[42],> 100 µM
same,TGI,[43],> 100 µM
same,TGI,[44],> 100 µM
same,TGI,[45],> 100 µM
same,TGI,[46],> 100 µM
same,TGI,[47],> 100 µM
same,TGI,[48],> 100 µM
same,TGI,[49],> 100 µM
same,TGI,[50],> 100 µM
same,TGI,[51],> 100 µM
same,TGI,[52],> 100 µM
same,TGI,[53],> 100 µM
same,TGI,[54],> 100 µM
same,TGI,[55],> 100 µM
Cc1cc(=O)cc2sc3c(C)cccc3nc1-2,TGI,[1],31.8 µM
same,TGI,[2],> 100 µM
same,TGI,[3],57.6 µM
same,TGI,[4],48.2 µM
same,TGI,[5],60.5 µM
same,TGI,[6],32.9 µM
same,TGI,[7],78.7 µM
same,TGI,[8],> 100 µM
same,TGI,[9],91.2 µM
same,TGI,[10],52 µM
same,TGI,[12],54.9 µM
same,TGI,[13],30 µM
same,TGI,[14],83 µM
same,TGI,[15],> 100 µM
same,TGI,[16],> 100 µM
same,TGI,[17],> 100 µM
same,TGI,[18],> 100 µM
same,TGI,[19],> 100 µM
same,TGI,[20],> 100 µM
same,TGI,[21],52 µM
same,TGI,[22],32.2 µM
same,TGI,[23],> 100 µM
same,TGI,[24],17.7 µM
same,TGI,[25],59.4 µM
same,TGI,[26],36.5 µM
same,TGI,[27],> 100 µM
same,TGI,[28],> 100 µM
same,TGI,[30],> 100 µM
same,TGI,[31],93.3 µM
same,TGI,[32],41.7 µM
same,TGI,[33],32.6 µM
same,TGI,[34],43.9 µM
same,TGI,[35],> 100 µM
same,TGI,[36],> 100 µM
same,TGI,[37],> 100 µM
same,TGI,[38],> 100 µM
same,TGI,[39],39.2 µM
same,TGI,[40],> 100 µM
same,TGI,[41],> 100 µM
same,TGI,[42],97 µM
same,TGI,[43],> 100 µM
same,TGI,[45],77.4 µM
same,TGI,[46],> 100 µM
same,TGI,[56],> 100 µM
same,TGI,[47],26.3 µM
same,TGI,[48],> 100 µM
same,TGI,[49],85.9 µM
same,TGI,[50],> 100 µM
same,TGI,[51],46.8 µM
same,TGI,[52],73.3 µM
same,TGI,[53],46.1 µM
same,TGI,[54],> 100 µM
same,TGI,[55],> 100 µM
